Experimental data reported in EP0597838B1, “VACCINE COMPOSITIONS” (NORTH AMERICAN VACCINE, INC., priority 1990, dated 1991).
Structures can show the parent of a compound that is named as a salt.

Assays:
[1] = system: hepatitis B surface antigen; assay: Antibody response to hepatitis B surface antigen with octadecyl amino acid immunoadjuvants, radioimmunoassay of sera; assay type: in vivo, BALB/c mice; conditions: 50 ng HBsAg i.m. day 1, boost 35 ng day 21, 100 µg octadecyl amino acid
Procedure: (§1) BALB/c mice were immunized with 50 ng of hepatitis B surface antigen in the presence of adjuvant for the non-control mice and in the absence of adjuvant for the control mice. The hepatitis B surface antigen was obtained from 3T3 cells transfected with the gene for the surface antigen. 100 µg of octadecyl amino acid was complexed with the polypeptide as described in Example 2. This mixture, in a total volume of 0.1 ml, was injected on day 1 using an intramuscular route, and the mice were bled on days 7, 14, 21, 28, 35, 42 and 61. The mice were boosted with 35 ng of the polypeptide on day 21.
(§2) The antibody concentration in the sera was determined by radioimmunoassay. The antibody concentration was estimated by comparison with a standard curve obtained using a monoclonal antibody.

[2] = system: HIV-1 polypeptide, residues 503-535; assay: Antibody response to HIV-1 polypeptide 503-535 coupled to KLH in mice, radioimmunoassay of sera; assay type: in vivo, BALB/c mice; conditions: 100 µg polypeptide-KLH on day 1 and day 21
Procedure: 1) HIV Peptide Sequence The peptide sequence of the HIV was as follows. Product: BC-101 503- H-[…] 535 M.W. 3585.14 (Back-bone) 2) Experiments in mice BALB/c mice were immunized with 100 µg of chemically synthesized polypeptide, corresponding to the amino acid sequence of residues 503-535 of HIV-1, coupled to Keyhole Limpet Hemocyanin (KLH). Octadecyl tyrosine hydro-chloride, 10 µg-100 µg, was complexed with the polypeptide as described in Example 2. This mixture, in a total volume of 0.1 ml, was injected on day 1, and again on day 21. The mice were bled on days 7, 14, 21, 28 and 35. The antibody concentration in the sera was determined by radioimmunoassay. The antibody concentration was estimated by comparison with a standard curve obtained using a polyclonal antibody.

[3] = system: hepatitis B surface antigen; assay: Isotype of the anti-hepatitis B surface antigen antibody response, radioimmunoassay with tritium labelled anti-mouse isotype antibody; assay type: in vivo, mice; conditions: for IgE, radioactivity of bound isotype antibody / IgG1, radioactivity of bound isotype antibody / IgG2a, radioactivity of bound isotype antibody / IgG2b, radioactivity of bound isotype antibody / IgG3, radioactivity of bound isotype antibody / IgM, radioactivity of bound isotype antibody: immunization on day 1 and 21, 50 µg of octadecyl tyrosine
Procedure: The protocol was as described in Example 5, Section 2 (mice) except that 50 µg of octadecyl tyrosine was used for both the primary and secondary (day 21) immunizations. The isotype of the antibody response was determined by radioimmunoassay. Use was made of tritium labelled anti-mouse isotype antibody. Titration was undertaken by incubation of samples on plates coated with immunoaffinity purified hepatitis B surface antigen.

[4] = system: hepatitis B surface antigen; assay: Antibody response to hepatitis B surface antigen as a function of octadecyl tyrosine dose, radioimmunoassay of sera; assay type: in vivo, BALB/c mice; conditions: 80 ng HBsAg, boost 50 ng, pre-bleed value 11.5
Procedure: as §1, §2
The immunizations were carried out in the presence of adjuvant for the non-control mice and in the absence of adjuvant for the control mice.

[5] = C.L. Penney et al, Vaccine 4, 1986; cited from earlier work
[6] = system: hepatitis B surface antigen; assay: Antibody response to hepatitis B surface antigen as a function of octadecyl tyrosine dose, radioimmunoassay of sera; assay type: in vivo, BALB/c mice; conditions: day 21, 80 ng HBsAg, boost 50 ng, pre-bleed value 11.5

CCCCCCCCCCCCCCCCCCOC(=O)C(N)Cc1ccc(O)cc1 (centres unmarked) [Octadecyl Tyrosine, octadecyl tyrosine hydrochloride]
Anti-HBsAg antibody concentration ([1]; day 7): 68 ng/mL | Anti-HBsAg antibody concentration ([1]; day 14): 91 ng/mL | Anti-HBsAg antibody concentration ([1]; day 21): 58 ng/mL | Anti-HBsAg antibody concentration ([1]; day 28): 355 ng/mL | Anti-HBsAg antibody concentration ([1]; day 35): 833 ng/mL | Anti-HBsAg antibody concentration ([1]; day 61): 752 ng/mL | Anti-peptide antibody concentration ([2]; 10 µg adjuvant, day 7): 1.61 µg/mL | Anti-peptide antibody concentration ([2]; 10 µg adjuvant, day 14): 3.15 µg/mL | Anti-peptide antibody concentration ([2]; 10 µg adjuvant, day 21): 1.49 µg/mL | Anti-peptide antibody concentration ([2]; 10 µg adjuvant, day 28): 85.9 µg/mL | Anti-peptide antibody concentration ([2]; 10 µg adjuvant, day 35): 131.9 µg/mL | Anti-peptide antibody concentration ([2]; 50 µg adjuvant, day 7): 1.18 µg/mL | Anti-peptide antibody concentration ([2]; 50 µg adjuvant, day 14): 0.75 µg/mL | Anti-peptide antibody concentration ([2]; 50 µg adjuvant, day 21): 2.99 µg/mL | Anti-peptide antibody concentration ([2]; 50 µg adjuvant, day 28): 54.2 µg/mL | Anti-peptide antibody concentration ([2]; 50 µg adjuvant, day 35): 86.2 µg/mL | Anti-peptide antibody concentration ([2]; 100 µg adjuvant, day 7): 0.87 µg/mL | Anti-peptide antibody concentration ([2]; 100 µg adjuvant, day 14): 1.65 µg/mL | Anti-peptide antibody concentration ([2]; 100 µg adjuvant, day 21): 2.04 µg/mL | Anti-peptide antibody concentration ([2]; 100 µg adjuvant, day 28): 155.3 µg/mL | Anti-peptide antibody concentration ([2]; 100 µg adjuvant, day 35): 138.0 µg/mL | IgE, radioactivity of bound isotype antibody ([3]; day of bleed 14): 33±10 cpm | IgG1, radioactivity of bound isotype antibody ([3]; day of bleed 14): 568±32 cpm | IgG2a, radioactivity of bound isotype antibody ([3]; day of bleed 14): 483±44 cpm | IgG2b, radioactivity of bound isotype antibody ([3]; day of bleed 14): 290±31 cpm | IgG3, radioactivity of bound isotype antibody ([3]; day of bleed 14): 144±19 cpm | IgM, radioactivity of bound isotype antibody ([3]; day of bleed 14): 347±37 cpm | IgE, radioactivity of bound isotype antibody ([3]; day of bleed 35): 55±33 cpm | IgG1, radioactivity of bound isotype antibody ([3]; day of bleed 35): 8030±155 cpm | IgG2a, radioactivity of bound isotype antibody ([3]; day of bleed 35): 12331±336 cpm | IgG2b, radioactivity of bound isotype antibody ([3]; day of bleed 35): 4710±115 cpm | IgG3, radioactivity of bound isotype antibody ([3]; day of bleed 35): 333±17 cpm | IgM, radioactivity of bound isotype antibody ([3]; day of bleed 35): 826±8 cpm | IgE, radioactivity of bound isotype antibody ([3]; day of bleed 42): 29±12 cpm | IgG1, radioactivity of bound isotype antibody ([3]; day of bleed 42): 6176±496 cpm | IgG2a, radioactivity of bound isotype antibody ([3]; day of bleed 42): 2271±215 cpm | IgG2b, radioactivity of bound isotype antibody ([3]; day of bleed 42): 1109±77 cpm | IgG3, radioactivity of bound isotype antibody ([3]; day of bleed 42): 165±24 cpm | IgM, radioactivity of bound isotype antibody ([3]; day of bleed 42): 545±87 cpm | levels of IgE antibodies ([3]; in words, compared to the control without adjuvant): no significant increase | Antibody response to hepatitis B surface antigen ([4]; 10 µg adjuvant, day 7): 611 CPM | Antibody response to hepatitis B surface antigen ([4]; 10 µg adjuvant, day 14): 2314 CPM | Antibody response to hepatitis B surface antigen ([4]; 10 µg adjuvant, day 28): 8403 CPM | Antibody response to hepatitis B surface antigen ([4]; 10 µg adjuvant, day 35): 10005 CPM | Antibody response to hepatitis B surface antigen ([4]; 50 µg adjuvant, day 7): 2064 CPM | Antibody response to hepatitis B surface antigen ([4]; 50 µg adjuvant, day 14): 846 CPM | Antibody response to hepatitis B surface antigen ([4]; 50 µg adjuvant, day 28): 18804 CPM | Antibody response to hepatitis B surface antigen ([4]; 50 µg adjuvant, day 35): 20616 CPM | Antibody response to hepatitis B surface antigen ([4]; 100 µg adjuvant, day 7): 1107 CPM | Antibody response to hepatitis B surface antigen ([4]; 100 µg adjuvant, day 14): 537 CPM | Antibody response to hepatitis B surface antigen ([4]; 100 µg adjuvant, day 28): 19679 CPM | Antibody response to hepatitis B surface antigen ([4]; 100 µg adjuvant, day 35): 13427 CPM | toxicity in animals [5]: non-toxic | Antibody response to hepatitis B surface antigen ([6]; 10 µg adjuvant): 342 CPM | Antibody response to hepatitis B surface antigen ([6]; 50 µg adjuvant): 4000 CPM | Antibody response to hepatitis B surface antigen ([6]; 100 µg adjuvant): 1279 CPM
